Patent US20080058213A1, “Benzoxazole Compounds” (priority 2004, published 2008)

What was measured:
Assay type in all cases: in vivo
[1] = test system: barnyard grass (Echinochloa crusgalli); assay: Weed control test for paddy field (Test Example 1): barnyard grass; conditions: paddy pots, treated at 1.0 leaf stage of barnyard grass, examined after 3 weeks
Text: (§1) Paddy field soil was filled in 1/10,000 are pots, kneaded with adequate amounts of water and chemical fertilizer, seeded with barnyard grass (Echinochloa crusgalli), Monochoria (Monochoria vaginalis), Japanese bulrush (Scirpus juncoides) and flat sedge (Cyperus serotinus), and further transplanted with 2.0 leaf stage of rice plant. The pots were maintained under the water-filled condition to a depth of 3 cm.
(§2) Wettable powders containing the compounds (1) as identified in Table 1, which were formulated following Production Example 2, were diluted with adequate amount of water and applied to the pots dropwise with pippet at a prescribed dose of the active ingredients per are, at 1.0 leaf stage of the barnyard grass.
(§3) After placing the pots in a glasshouse which was controlled at an average temperature of 25° C. for 3 weeks, herbicidal effect was examined.
(§4) Evaluation of the herbicidal effect is shown in the following six grades, by comparing the condition of untreated control and growth inhibition (%): • 0: 0%-less than 20% • 1: 20%-less than 40% • 2: 40%-less than 60% • 3: 60%-less than 80% • 4: 80%-less than 100% • 5: 100%.

[2] = test system: Monochoria (Monochoria vaginalis); assay: Weed control test for paddy field (Test Example 1): Monochoria; conditions: paddy pots, treated at 1.0 leaf stage of barnyard grass, examined after 3 weeks
Text: as §1, §2, §3, §4

[3] = test system: Japanese bulrush (Scirpus juncoides); assay: Weed control test for paddy field (Test Example 1): Japanese bulrush; conditions: paddy pots, treated at 1.0 leaf stage of barnyard grass, examined after 3 weeks
Text: as §1, §2, §3, §4

[4] = test system: flat sedge (Cyperus serotinus); assay: Weed control test for paddy field (Test Example 1): flat sedge; conditions: paddy pots, treated at 1.0 leaf stage of barnyard grass, examined after 3 weeks
Text: as §1, §2, §3, §4

[5] = test system: rice plant; assay: Weed control test for paddy field (Test Example 1): phytotoxicity to rice plant
Text: as §1, §2, §3
(§5) Evaluation of phytotoxicity is shown in the following six grades, as compared with the condition of untreated control: • 0: normal growth • 1: little damaged • 2: low damaged • 3: medium damaged • 4: serious damaged • 5: complete killed.

[6] = test system: southern crabgrass (Digitaria ciliaris); assay: Soil treatment test for upland field (Test Example 2): southern crabgrass; conditions: soil treatment before germination, examined after 3 weeks
Text: as §4
(§6) Upland field soil was filled in 1/3,000 are pots, seeded with southern crabgrass (Digitaria ciliaris), common lambsquaters (Chenopodium album), slender amaranth (Amaranthus viridis), common purslane (Portulaca oleracea), velvetleaf (Abutilon theophrasti), wheat, corn and soybean. The seeds were covered up with the soil.
(§7) Wettable powders containing the object compounds (1) as identified in Table 1, which were formulated following Preparation Example 2, were diluted with adequate amount of water to secure the prescribed dose of the active ingredient, and uniformly sprayed onto the surface soil layer after the seeding and before germination of the weeds, at an application water of 15 liters per are.
(§8) After placing the test pots in a glasshouse which was kept at an average temperature of 25° C. for 3 weeks, the herbicidal effect was examined.
(§9) Evaluations of the herbicidal effect and phytotoxicity were made in the manner similar to those in the above Test Example 1.

[7] = test system: common lambsquaters (Chenopodium album); assay: Soil treatment test for upland field (Test Example 2): common lambsquaters; conditions: soil treatment before germination, examined after 3 weeks
Text: as §4, §6, §7, §8, §9

[8] = test system: slender amaranth (Amaranthus viridis); assay: Soil treatment test for upland field (Test Example 2): slender amaranth; conditions: soil treatment before germination, examined after 3 weeks
Text: as §4, §6, §7, §8, §9

[9] = test system: common purslane (Portulaca oleracea); assay: Soil treatment test for upland field (Test Example 2): common purslane; conditions: soil treatment before germination, examined after 3 weeks
Text: as §4, §6, §7, §8, §9

[10] = test system: velvetleaf (Abutilon theophrasti); assay: Soil treatment test for upland field (Test Example 2): velvetleaf; conditions: soil treatment before germination, examined after 3 weeks
Text: as §4, §6, §7, §8, §9

[11] = test system: wheat; assay: Soil treatment test for upland field (Test Example 2): phytotoxicity to wheat; conditions: soil treatment before germination, examined after 3 weeks
Text: as §5, §6, §8

[12] = test system: corn; assay: Soil treatment test for upland field (Test Example 2): phytotoxicity to corn; conditions: soil treatment before germination, examined after 3 weeks
Text: as §5, §6, §8

[13] = test system: soybean; assay: Soil treatment test for upland field (Test Example 2): phytotoxicity to soybean; conditions: soil treatment before germination, examined after 3 weeks
Text: as §5, §6, §8

[14] = test system: southern crabgrass; assay: Foliage treatment test for upland field (Test Example 3): southern crabgrass; conditions: foliage treatment at 1.0-2.0 leaf stage of southern crabgrass, examined after 3 weeks
Text: as §4
(§10) Compost mixed soil was filled in 1/3,000 are pots, seeded with southern crabgrass, common lambsquaters, slender amaranth, common purslane, velvetleaf, wheat, corn and soybean. The seeds were covered up with the soil and cultured in a glasshouse kept at 25° C. on the average.
(§11) Wettable powders containing the object compounds (1) as identified in Table 1, which were formulated following Preparation Example 2, were diluted with water to the prescribed dose of the active ingredient, and uniformly sprayed onto the weeds at 1.0-2.0 leaf stage of the southern crabgrass at an application water of 15 liters per are.
(§12) After placing the test pots in a grasshouse kept at 25° C. on the average for 3 weeks, the herbicidal effect was examined.
(§13) Evaluation of the herbicidal effect was conducted in the similar manner to Test Example 1.

[15] = test system: common lambsquaters; assay: Foliage treatment test for upland field (Test Example 3): common lambsquaters; conditions: foliage treatment at 1.0-2.0 leaf stage of southern crabgrass, examined after 3 weeks
Text: as §4, §10, §11, §12, §13

[16] = test system: slender amaranth; assay: Foliage treatment test for upland field (Test Example 3): slender amaranth; conditions: foliage treatment at 1.0-2.0 leaf stage of southern crabgrass, examined after 3 weeks
Text: as §4, §10, §11, §12, §13

[17] = test system: common purslane; assay: Foliage treatment test for upland field (Test Example 3): common purslane; conditions: foliage treatment at 1.0-2.0 leaf stage of southern crabgrass, examined after 3 weeks
Text: as §4, §10, §11, §12, §13

[18] = test system: velvetleaf; assay: Foliage treatment test for upland field (Test Example 3): velvetleaf; conditions: foliage treatment at 1.0-2.0 leaf stage of southern crabgrass, examined after 3 weeks
Text: as §4, §10, §11, §12, §13

[19] = test system: wheat; assay: Foliage treatment test for upland field (Test Example 3): phytotoxicity to wheat; conditions: foliage treatment at 1.0-2.0 leaf stage of southern crabgrass, examined after 3 weeks
Description: as §5, §10, §12

[20] = test system: corn; assay: Foliage treatment test for upland field (Test Example 3): phytotoxicity to corn; conditions: foliage treatment at 1.0-2.0 leaf stage of southern crabgrass, examined after 3 weeks
Description: as §5, §10, §12

[21] = test system: soybean; assay: Foliage treatment test for upland field (Test Example 3): phytotoxicity to soybean; conditions: foliage treatment at 1.0-2.0 leaf stage of southern crabgrass, examined after 3 weeks
Description: as §5, §10, §12

For `COC/C(=C\c1cccc(C(F)(F)F)c1)c1nc2cc(Cl)ccc2o1` [Compound 3], the “Herbicidal Effect Barnyard grass” value ([1]; dose 2.5 g ai/a) was 5 (100%), the “Herbicidal Effect Barnyard grass” value ([1]; dose 5 g ai/a) was 5 (100%) and the “Herbicidal Effect Monochoria vaginalis” value ([2]; dose 2.5 g ai/a) was 5 (100%). For the same compound, the “Herbicidal Effect Monochoria vaginalis” value ([2]; dose 5 g ai/a) was 5 (100%), the “Herbicidal Effect Japanese bulrush” value ([3]; dose 2.5 g ai/a) was 4 (80%-less than 100%) and the “Herbicidal Effect Japanese bulrush” value ([3]; dose 5 g ai/a) was 5 (100%). The “Herbicidal Effect Flat sedge” value ([4]; dose 2.5 g ai/a) was 3 (60%-less than 80%), the “Herbicidal Effect Flat sedge” value ([4]; dose 5 g ai/a) was 5 (100%) and the “Phytotoxicity Rice plant” value ([5]; in vivo) was 1. For the same compound, the “Herbicidal Effect southern crabgrass” value ([6]; dose 2.5 g ai/a) was 5 (100%), the “Herbicidal Effect southern crabgrass” value ([6]; dose 5 g ai/a) was 5 (100%) and the “Herbicidal Effect common lambsquaters” value ([7]; dose 2.5 g ai/a) was 5 (100%). For the same compound, the “Herbicidal Effect common lambsquaters” value ([7]; dose 5 g ai/a) was 5 (100%), the “Herbicidal Effect slender amaranth” value ([8]; dose 2.5 g ai/a) was 5 (100%) and the “Herbicidal Effect slender amaranth” value ([8]; dose 5 g ai/a) was 5 (100%). The “Herbicidal Effect common purslane” value ([9]; dose 2.5 g ai/a) was 5 (100%), the “Herbicidal Effect common purslane” value ([9]; dose 5 g ai/a) was 5 (100%) and the “Herbicidal Effect velvetleaf” value ([10]; dose 2.5 g ai/a) was 3 (60%-less than 80%). For the same compound, the “Herbicidal Effect velvetleaf” value ([10]; dose 5 g ai/a) was 4 (80%-less than 100%), the Phytotoxicity wheat ([11]; dose 2.5 g ai/a) was 0 and the Phytotoxicity wheat ([11]; dose 5 g ai/a) was 0. It also gave a Phytotoxicity corn ([12]; dose 2.5 g ai/a) of 0, a Phytotoxicity corn ([12]; dose 5 g ai/a) of 1 and a Phytotoxicity soybean ([13]; dose 2.5 g ai/a) of 0. For the same compound, the Phytotoxicity soybean ([13]; dose 5 g ai/a) was 0, the “Herbicidal Effect southern crabgrass” value ([14]; dose 2.5 g ai/a) was 5 (100%) and the “Herbicidal Effect southern crabgrass” value ([14]; dose 5 g ai/a) was 5 (100%). For the same compound, the “Herbicidal Effect Common lambsquatters” value ([15]; dose 2.5 g ai/a) was 5 (100%), the “Herbicidal Effect Common lambsquatters” value ([15]; dose 5 g ai/a) was 5 (100%) and the “Herbicidal Effect slender amaranth” value ([16]; dose 2.5 g ai/a) was 5 (100%). The “Herbicidal Effect slender amaranth” value ([16]; dose 5 g ai/a) was 5 (100%), the “Herbicidal Effect common purslane” value ([17]; dose 2.5 g ai/a) was 5 (100%) and the “Herbicidal Effect common purslane” value ([17]; dose 5 g ai/a) was 5 (100%). For the same compound, the “Herbicidal Effect velvetleaf” value ([18]; dose 2.5 g ai/a) was 5 (100%), the “Herbicidal Effect velvetleaf” value ([18]; dose 5 g ai/a) was 5 (100%) and the Phytotoxicity wheat ([19]; dose 2.5 g ai/a) was 1. It also gave a Phytotoxicity wheat ([19]; dose 5 g ai/a) of 1, a Phytotoxicity corn ([20]; dose 2.5 g ai/a) of 1 and a Phytotoxicity corn ([20]; dose 5 g ai/a) of 1. For the same compound, the Phytotoxicity soybean ([21]; dose 2.5 g ai/a) was 1 and the Phytotoxicity soybean ([21]; dose 5 g ai/a) was 2.
`CSCC(=Cc1cccc(C(F)(F)F)c1)c1nc2cc(Cl)ccc2o1` [Compound 30] was tested, and the “Herbicidal Effect Barnyard grass” value ([1]; dose 2.5 g ai/a) was 4 (80%-less than 100%), the “Herbicidal Effect Barnyard grass” value ([1]; dose 5 g ai/a) was 5 (100%) and the “Herbicidal Effect Monochoria vaginalis” value ([2]; dose 2.5 g ai/a) was 5 (100%). The “Herbicidal Effect Monochoria vaginalis” value ([2]; dose 5 g ai/a) was 5 (100%), the “Herbicidal Effect Japanese bulrush” value ([3]; dose 2.5 g ai/a) was 4 (80%-less than 100%) and the “Herbicidal Effect Japanese bulrush” value ([3]; dose 5 g ai/a) was 5 (100%). For the same compound, the “Herbicidal Effect Flat sedge” value ([4]; dose 2.5 g ai/a) was 3 (60%-less than 80%), the “Herbicidal Effect Flat sedge” value ([4]; dose 5 g ai/a) was 5 (100%) and the “Phytotoxicity Rice plant” value ([5]; dose 2.5 g ai/a, paddy pots, treated at 1.0 leaf stage of barnyard grass, examined after 3 weeks) was 0. For the same compound, the “Phytotoxicity Rice plant” value ([5]; dose 5 g ai/a, paddy pots, treated at 1.0 leaf stage of barnyard grass, examined after 3 weeks) was 0, the “Herbicidal Effect southern crabgrass” value ([6]; dose 2.5 g ai/a) was 3 (60%-less than 80%) and the “Herbicidal Effect southern crabgrass” value ([6]; dose 5 g ai/a) was 5 (100%). For the same compound, the “Herbicidal Effect common lambsquaters” value ([7]; dose 2.5 g ai/a) was 4 (80%-less than 100%), the “Herbicidal Effect common lambsquaters” value ([7]; dose 5 g ai/a) was 4 (80%-less than 100%) and the “Herbicidal Effect slender amaranth” value ([8]; dose 2.5 g ai/a) was 5 (100%). For the same compound, the “Herbicidal Effect slender amaranth” value ([8]; dose 5 g ai/a) was 5 (100%), the “Herbicidal Effect common purslane” value ([9]; dose 2.5 g ai/a) was 5 (100%) and the “Herbicidal Effect common purslane” value ([9]; dose 5 g ai/a) was 5 (100%). The “Herbicidal Effect velvetleaf” value ([10]; dose 2.5 g ai/a) was 2 (40%-less than 60%), the “Herbicidal Effect velvetleaf” value ([10]; dose 5 g ai/a) was 2 (40%-less than 60%) and the Phytotoxicity wheat ([11]; dose 2.5 g ai/a) was 0. The Phytotoxicity wheat ([11]; dose 5 g ai/a) was 1, the Phytotoxicity corn ([12]; dose 2.5 g ai/a) was 0 and the Phytotoxicity corn ([12]; dose 5 g ai/a) was 0. For the same compound, the Phytotoxicity soybean ([13]; dose 2.5 g ai/a) was 0 and the Phytotoxicity soybean ([13]; dose 5 g ai/a) was 0.
